Measurements taken from patent US20240390376A1, “METHOD FOR PREVENTING ADVERSE PREGNANCY OUTCOMES DUE TO USE OF SELECTIVE SEROTONIN REUPTAKE INHIBITORS (SSRI) DURING GESTATION” (Wisconsin Alumni Research Foundation, priority 2023, published 2024).
Like-named read-outs stand apart in the source and are kept apart here.

How the values were obtained:
pregnant C57Bl/6J mice = conditions: experiment 1; for overall neonatal mortality: control 4.1%
Protocol: (§1) To investigate the role of ketanserin, an exemplary serotonin receptors 2A and 2C antagonist, on preventing SSRI-induced adverse pregnancy and neonatal outcomes, pregnant mice were treated with SSRI, serotonin, and SSRI/serotonin+ketanserin.

pregnant mice [1] = assay: Experiment 2: as experiment 1, all mice received ketanserin one hour before treatment; type: in vivo; conditions: for litter size / overall neonatal mortality / maternal weight gain / neonatal weight on postnatal day 0: experiment 2; for litter size / overall neonatal mortality: ketanserin 1 mg/kg daily one hour before saline, fluoxetine or serotonin; for maternal weight gain / neonatal weight on postnatal day 0: ketanserin 1 mg/kg daily one hour before saline or serotonin
Protocol: as §1

pregnant mice [2] = assay: Number of mouse pups born in control and treatment groups (FIG. 2A); type: in vivo; conditions: serotonin 4 mg/kg, fluoxetine 2 mg/kg, ketanserin 1 mg/kg, vs saline control
pregnant mice [3] = conditions: fluoxetine 2 mg/kg and 20 mg/kg vs control; dose-dependent; FIG. 1C
pregnant sheep [4] = conditions: in vivo
Excerpt: FIG. 1G compares lamb birthweights between a treatment group and control group.
FIG. 1G compares the lamb birthweights between the treatment group and control group.

[5] = cited from earlier work
pregnant sheep [6] = conditions: cited from earlier work
[7] = in vivo; cited from earlier work
placenta of mice = assay: Placenta immunostaining (Tunel, caspase 3, Ki67) and placental size, embryonic day 18.5 (FIG. 2B); conditions: fluoxetine 20 mg/kg
SERT null mice = assay: Ketanserin rescue of neonatal mortality in SERT null mice; type: in vivo; conditions: 49.0% without ketanserin
Protocol: By performing RNA sequencing of placenta from heterozygous Sert+/− mice vs homozygous Sert−/− knockout mice and their respective offspring, it was confirmed that lack of maternal, but not placental or fetal SERT, is associated with placental changes: more than 2,100 genes were differentially expressed in the placenta when the dam was SERT−/−. Importantly, ketanserin also rescued the neonatal mortality in SERT null mice (49.0 vs 23.8% within 24 hours of birth).

[8] = fluoxetine 2 mg/kg or serotonin 5 mg/kg daily

Row | SMILES | overall neonatal mortality (pregnant C57Bl/6J mice; [8]) [%] | litter size (pregnant mice [1]) | overall neonatal mortality (pregnant mice [1]) [%] | number of pups born (pregnant mice [2]) | number of pups born [7] | pup mortality [7] | maternal weight gain (pregnant mice [1]) [g] | neonatal weight on postnatal day 0 (pregnant mice [1]) [g] | other results
1 | CNCCC(Oc1ccc(C(F)(F)F)cc1)c1ccccc1 (centres unmarked) [fluoxetine] | 11.6 | 7.4±0.6 | 24.3 | significantly reduced | decrease | increase |  |  | mouse pup mortality (pregnant mice [3]): decidedly negative effect; average gestational length (pregnant sheep [4]; female, sheep): 147.7 days; lamb birthweights (pregnant sheep [4]): weighed significantly less; placentome diameter (pregnant sheep [4]): significantly smaller; placental transfer ([5]; in vivo): about 70%; blood perfusion to the uterus (pregnant sheep [6]; third trimester pregnant sheep): rapidly decreased; placentome growth (pregnant sheep [6]; treated during the last month of gestation): decreased placentome growth; pregnancy rates [7]: decreases; Tunel-positive apoptotic cells in the placenta (placenta of mice): visualized; placental size (placenta of mice; ketanserin 1 mg/kg): much reduced
2 | O=C(c1ccc(F)cc1)C1CCN(CCn2c(=O)[nH]c3ccccc3c2=O)CC1 [ketanserin, 3-[2-[4-(4-fluorobenzoyl)piperidin-1-yl]ethyl]-1H-quinazoline-2,4-dione] |  | 7.0±0.3 | 8.5 |  |  |  | 11.4 ± 0.5 | 1.264 ± 0.01 | placental changes and adverse pregnancy and neonatal outcomes caused by SSRI use (pregnant mice [1]; summary of the ketanserin studies): prevented most placental changes and adverse pregnancy and neonatal outcomes; neonatal mortality within 24 hours of birth (SERT null mice): 23.8%
3 | NCCc1c[nH]c2ccc(O)cc12 [serotonin, 5-hydroxytryptamine] | 32.3 | 7.0±0.5 | 22.8 | significantly reduced |  |  | 10.2 ± 0.6 | 1.197 ± 0.01 | maternal weight gain between DPC10.5 and the day before parturition (pregnant C57Bl/6J mice; fluoxetine 2 mg/kg or serotonin 5 mg/kg daily, DPC 10.5 until parturition): 8.0 ± 0.8 g; litter size (pregnant C57Bl/6J mice; fluoxetine 2 mg/kg or serotonin 5 mg/kg daily, control 8.3): 5.2±0.5; neonatal weight on postnatal day 0 (pregnant C57Bl/6J mice; serotonin 5 mg/kg daily): 1.138 ± 0.028 g; neonatal weight on postnatal day 1 (pregnant C57Bl/6J mice; serotonin 5 mg/kg daily): 1.223 ± 0.028 g
4 | CN[C@H]1CC[C@@H](c2ccc(Cl)c(Cl)c2)c2ccccc21 [sertraline] |  |  |  |  | decrease | increase |  |  | placental transfer ([5]; low concentrations in the fetal circulation): limited placental transfer
